In general, IC50 refers to the concentration that gives 50% inhibition. Low values mean greater potency in that assay, high ones weaker potency in that assay.

Test [1] deals with quisqualic acid stimulated spreading depression in chicken retina. Kind of test: Spreading Depression (Test 2): quisqualic acid stimulated spreading depression in chicken retina. The format is cell-based. Particulars: Gallus gallus, 0.25 h; 50% maximal inhibition of quisqualate (1 μg/ml) stimulated spreading depression in chicken retina; 15 min incubation with test compound, 26° C. Here is the method:
(§1) The pharmacological properties of the compounds of the present invention can be illustrated by determining their capability for displacing radioactively labelled 2-amino-3-hydroxy-5-methyl-4-isoxazolepropionic acid (AMPA) from the AMPA type receptors.
The antagonism is measured by determining the IC50 value which represents the concentration which produces a 50% maximal inhibition of quisqualic acid stimulated spreading depression in chicken retina.
Spreading Depression (Test 2)
Chicks (3-10 days old) were decapitated, the eyes enucleated and sectioned along the equatorial plane. […]
The eyes were initially incubated in normal P.S.S. for 15-30 min. and then transferred to P.S.S. containing quisqualate (1 μg/ml). […] The time taken for an S.D. to start in each eye was measured.
After a further 15 min. of incubation in normal P.S.S. the eyes were transferred to normal P.S.S. containing the test compound and incubated for 15 min. […] The time taken for an S.D. to start in each eye was measured again. The eyes were then placed back in normal P.S.S. and after 15 min. the time taken for S.D. to start was measured again, in order to assess the degree of recovery from any drug effects. […]

A further test has as its target AMPA type receptors. As to the kind of experiment: 3H-AMPA Binding (Test 1). Particulars: displacement of 50% of the specific binding of 3H-AMPA (5 nM); rat cerebral cortical membrane homogenate, 0° C., 30 min, pH 7.1. As for the experimental part:
as §1
The displacement activity of the compounds may be shown by determining the IC50 value which represents the concentration (μM) which causes a displacement of 50% of the specific binding of ^3 H-AMPA.
^3 H-AMPA Binding (Test 1)
500 μl of thawed rat cerebral cortical membrane homogenate in Tris-HCl (30 mM), CaCl2 (2.5 mM) and KSCN (100 mM) pH 7.1 were incubated at 0° C. for 30 min. with 25 μl ^3 H-AMPA (5 nM final concentration) and the test compound and buffer. Nonspecific binding was determined by incubation with L-glutamic acid (600 μM final concentration). The binding reaction was terminated by adding 5 ml of ice-cold buffer followed by filtration through Whatman GF/C glass fibre filters and 2×5 ml wash with ice-cold buffer. Bound radioactivity was measured by scintillation counting. IC50 was determined by Hill analysis of at least four concentrations of test compound.

With `Cc1cn(-c2cc3c(cc2C(F)(F)F)[nH]c(=O)c2nnc(CP(=O)(O)O)n23)c(-c2ccccc2)n1` [Example 2, 8-(4-Methyl-2-phenyl-1H-imidazol-1-yl)-1-phosphonomethyl-7-trifluoromethyl[1,2,4]triazolo[4,3-a]quinoxalin-4(5H)-one], the values for the IC50 (in test [1]; at AMPA type receptors) were 400 nM and 390 nM, respectively.

Values taken from patent US6001832A, “[1,2,4]triazolo[4,3-a]quinoxalinone derivatives, their preparation and use” (Novo Nordiskals, priority 1994, dated 1999).
